Earlier results in US20250195458A1, “SHORT-CHAIN FATTY ACIDS FOR CANCER TREATMENT” (priority 2022, published 2025).

Key:
colorectal cancer cells = conditions: literature summary of Example 2
[1] = system: pancreatic carcinoma cell lines (Capan-2, AsPC-1, and MiaPaCa-2); conditions: Capan-2, AsPC-1, MiaPaCa-2; literature summary of Example 2
human lung cancer cells = conditions: literature summary of Example 2
pancreatic cancer = conditions: literature summary of Example 2

CC(=O)O [Acetate]
Anti-tumor effect in colorectal cancer (apoptosis) (colorectal cancer cells): triggers apoptosis in colorectal cancer cells

CC(=O)O[C@]1(C(C)=O)CC[C@H]2[C@@H]3C[C@H](C)C4=CC(=O)CC[C@]4(C)[C@H]3CC[C@@]21C [Medroxyprogesterone acetate]
Proliferation of pancreatic carcinoma cell lines [1]: blocks the proliferation

CCC(=O)O [Propionate]
Anti-tumor effect in colorectal cancer (apoptosis) (colorectal cancer cells): induces apoptosis in colon cancer | Apoptosis and cell cycle arrest, lung cancer (human lung cancer cells): triggering cell apoptosis and cell cycle arrest

CCCC(=O)[O-].[Na+] [Sodium butyrate]
Invasion of pancreatic cancer (pancreatic cancer): hinders the invasion of pancreatic cancer | Expression levels of P-gp and STAT3 in human lung cancer cells (human lung cancer cells): increases the expression levels of P-gp and STATS3
